These results are taken from patent US12338483B2, “Compositions and methods for logic-gated profiling of biologic activity” (Georgia Tech Research Corporation, priority 2019, dated 2025).

Experiment [1] deals with T1, GzmB and Tobacco Etch Virus protease (Homo sapiens, UniProt P10144).
T1 construct: Tobacco Etch Virus protease
The experiment in a line: Incubation of GzmB/MMP AND-gate sensor with GzmB and Tobacco Etch Virus protease. It is filed as biochemical. The note with it: sensor 5 μM; 300 nM GzmB and 100 nM protease; 1.5 hours; FIG. 21. As for the experimental part:
(§1) Next the protease activity sensor was incubated with GzmB and either MMP8 or one of two viral proteases (West Nile Virus NS3 protease and Tobacco Etch Virus protease) to show the AND-gate sensor can distinguish immune activity in tumors from viral infections (FIG. 21). The sensor produced low signals with the viral proteases compared to MMP8.
(§2) FIGS. 20-21 show mean change in fluorescence (7D, kinetic trace) after incubation of GzmB/MMP AND-gate sensor (5 μM) with (7C) 300 nM GzmB and/or 100 nM different MMP's or (7D) 300 nM GzmB and 100 nM West Nile Virus NS3 protease, Tobacco Etch Virus protease, or MMP8 for 1.5 hours, n=3.

Another experiment concerns the target T2, GzmB (Homo sapiens, UniProt P10144) and West Nile Virus NS3 protease.
T2 construct: West Nile Virus NS3 protease
The experiment in a line: Incubation of GzmB/MMP AND-gate sensor with GzmB and West Nile Virus NS3 protease. The conditions noted are these: sensor 5 μM; 300 nM GzmB and 100 nM protease; 1.5 hours; FIG. 21. It is filed as biochemical. How it is done:
as §1, §2

The test system of a further experiment is GzmB and MMPs. Put plainly: Cleavage assay of GzmB/MMP AND-gate sensor with each MMP with and without GzmB. It is filed as biochemical. The note with it: sensor 5 μM; 300 nM GzmB and/or 100 nM different MMPs; 1.5 hours; all three MMPs; FIG. 20. As for the experimental part:
Then a cleavage assay was performed with the GzmB/MMP AND-gate sensor, testing the probe with each MMP with and without GzmB (FIG. 20).
as §2

Experiment [2] addresses T3, GzmB in supernatant of OT1 T-cell co-incubation with EL4 or EG7-OVA cells, and Thrb (UniProt P00734+P04187).
T3 construct: using the supernatant as a GzmB source and adding Thrb; endogenous in cells; host or cells: T cells from OT1 mice co-incubated with EL4 or EG7-OVA cells; supernatant used at 10%
Put plainly: Cleavage assay with supernatant of transgenic T-cell killing assay as GzmB source, plus Thrb. It is filed as cell-based, mice. The conditions noted are these: nanoparticle-conjugated sensor 1 μM; 10% supernatant from EL4 and EG7-OVA co-incubation and/or 3.7 Thrb; 12 hours; FIG. 17. As for the experimental part: FIGS. 15-17 show an example of the disclosed AND-gate protease activity sensors used with a living system. The sensors were evaluated in an in vitro transgenic T-cell killing assay in which cytotoxic T-cells taken from OT1 mice were co-incubated with target cells EL4 and EG7-OVA (FIG. 15). OT1 T cells can recognize the OVA antigen and mount an immune response, so the T-cells would theoretically respond to the EG7-OVA cells but not to the EL4 cells. Supernatant was harvested from the co-incubation and quantified the immune response by GzmB secretion using ELISA (FIG. 16). The concentration was measured after overnight co-incubation at 37° C. with target cells, as measured by ELISA, n=3. It was confirmed that co-incubation of OT1 cells with EG7-OVA cells, but not with EL4 cells, increases GzmB secretion by OT1 cells.
Then we cleavage assays were run with the AND-gate sensors, using the supernatant as a GzmB source and adding Thrb. […] Data for EL4 and EG7-OVA were normalized by subtraction of trace using OT1-only supernatant, and data for EL4+Thrb and EG7-OVA+Thrb were normalized by subtraction of trace using OT1-only supernatant and Thrb.

In a further experiment the test system is GzmB and Thrb. The experiment in a line: Cleavage assay of GzmB/Thrb AND-gate sensor with GzmB and/or Thrb. It is filed as biochemical. How it is done:
Next, the AND-gate logic protease sensor was tested in a cleavage assay.
Thus, the presence of even small amounts of a protease can be detected if the other protease is also present. FIGS. 13-14 show: mean change in fluorescence after incubation of the AND-gate sensor with (FIG. 13) 9.2 nM Thrb and varying concentrations of GzmB (0-150 nM) or (FIG. 14) 300 nM GzmB and varying concentrations of Thrb (0-4.6 nM) for 2 hours, n=2. For all fluorescent readings, samples were excited at 485 nm, emission was measured at 528 nm, and samples were incubated at 37° C.

Bridge positions count the residues as written; N and C are the ends. Square brackets hold non-standard residues; d marks the D form. Ends that are not written are not given here.

T3 sequence (P04187 21-247, one chain of several): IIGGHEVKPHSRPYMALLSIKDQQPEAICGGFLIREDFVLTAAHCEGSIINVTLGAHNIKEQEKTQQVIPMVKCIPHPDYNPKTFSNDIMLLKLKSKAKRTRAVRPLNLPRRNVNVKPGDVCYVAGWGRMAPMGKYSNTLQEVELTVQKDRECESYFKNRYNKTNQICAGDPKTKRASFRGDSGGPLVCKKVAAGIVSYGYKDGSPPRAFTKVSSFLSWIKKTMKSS
T2 sequence (P10144 21-247): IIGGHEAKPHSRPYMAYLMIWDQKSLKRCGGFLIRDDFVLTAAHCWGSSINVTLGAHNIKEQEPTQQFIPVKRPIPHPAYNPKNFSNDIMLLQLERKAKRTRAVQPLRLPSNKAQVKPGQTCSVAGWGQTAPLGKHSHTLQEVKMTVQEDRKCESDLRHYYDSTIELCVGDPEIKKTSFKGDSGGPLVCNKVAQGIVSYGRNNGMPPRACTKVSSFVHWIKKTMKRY
T1 sequence (P10144 21-247): as above

“GzmB/MMP AND-gate sensor: AND-gate protease activity sensor (SEQ ID NO: 2) that probes both GzmB and MMPs (CGIEFDSGGKGAPAALRAAGGCK; MOD_RES (11)..(11) D-Gly)”: the “signal with GzmB and Tobacco Etch Virus protease compared to MMP8” value in experiment [1] is given as “low signals”. In the experiment with GzmB, the “signal with GzmB and West Nile Virus NS3 protease compared to MMP8” value is listed as “low signals”. For the same substance, the “change of fluorescent signal on addition of GzmB to MMPs” value in the experiment with GzmB and MMPs is reported as “drastically increased the fluorescent signal by over two-fold”.
Regarding “GzmB/Thrb AND-gate sensor: Disulfide-cyclized peptide (SEQ ID NO: 1) with DABCYL quencher, 5-FAM reporter, GzmB and Thrb substrates and an azide for click conjugation (KCGIEFDSGGKGG[dF]PRSGGGCK; disulfide 2-21 (inferred); also: DABCYL quencher, 5-FAM reporter, azide for click conjugation)”, in experiment [2], the “signal (mean change in fluorescence) with T-cell co-incubation supernatant” value is “high signal was attained only when Thrb was added to the GzmB-high OT1/EG7-OVA supernatant”. For the same substance, the “sensitivity of fluorescence to protease concentration” value in the experiment with GzmB and Thrb (9.2 nM Thrb with 0-150 nM GzmB, or 300 nM GzmB with 0-4.6 nM Thrb, 2 hours, FIGS. 13-14) is given as “very sensitive to small changes in the concentration of both proteases even in the nanomolar range”. Besides, in the experiment on GzmB and Thrb (nanoparticle-conjugated sensor 1 μM, 125 nM GzmB and 3.7 nM Thrb, 12 hours, FIG. 12), the “fluorescent signal, both proteases present together” value is reported as “high fluorescent signal”. For the same substance, in the experiment on GzmB and Thrb (nanoparticle-conjugated sensor 1 μM, 125 nM GzmB or 3.7 nM Thrb, 12 hours, FIG. 12), the “fluorescent signal, either protease present alone” value is reported as “not when either protease is present alone”.
